For one experiment, the target named is T1, Axl enzyme (Homo sapiens, UniProt P30530).
T1 sequence (P30530 26-894): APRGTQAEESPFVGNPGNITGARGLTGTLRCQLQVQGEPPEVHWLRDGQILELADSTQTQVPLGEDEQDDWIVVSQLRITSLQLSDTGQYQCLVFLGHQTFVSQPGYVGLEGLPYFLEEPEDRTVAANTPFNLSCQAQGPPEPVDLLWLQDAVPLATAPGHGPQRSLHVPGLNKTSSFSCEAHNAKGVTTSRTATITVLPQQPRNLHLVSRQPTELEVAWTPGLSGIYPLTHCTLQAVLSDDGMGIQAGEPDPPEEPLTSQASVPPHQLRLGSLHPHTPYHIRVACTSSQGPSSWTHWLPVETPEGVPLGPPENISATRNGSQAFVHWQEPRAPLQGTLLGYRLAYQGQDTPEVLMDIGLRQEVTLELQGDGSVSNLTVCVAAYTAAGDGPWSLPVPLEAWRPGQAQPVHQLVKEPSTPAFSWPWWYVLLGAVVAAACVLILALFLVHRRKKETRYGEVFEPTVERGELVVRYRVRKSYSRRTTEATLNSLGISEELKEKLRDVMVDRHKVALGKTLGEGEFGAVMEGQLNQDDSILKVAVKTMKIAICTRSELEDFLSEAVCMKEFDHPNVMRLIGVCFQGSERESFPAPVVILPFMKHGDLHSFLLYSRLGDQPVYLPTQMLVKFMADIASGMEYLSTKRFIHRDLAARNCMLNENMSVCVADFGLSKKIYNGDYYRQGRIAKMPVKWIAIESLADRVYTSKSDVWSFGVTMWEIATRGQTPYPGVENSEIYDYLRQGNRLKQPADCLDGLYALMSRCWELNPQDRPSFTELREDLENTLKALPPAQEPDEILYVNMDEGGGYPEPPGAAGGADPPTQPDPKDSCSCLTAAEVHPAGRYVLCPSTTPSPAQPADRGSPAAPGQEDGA
The experiment in a line: Measurement of Axl inhibitory activity (in vitro test, LanthaScreen TR-FRET). The class given is biochemical. To be noted: Fluorescein-Poly GT substrate, ATP, read-out: Axl enzyme inhibitory activity, value of 50% inhibition rate (IC50 value). The protocol:
Measurement of Axl Inhibitory Activity (In Vitro Test)
The Axl enzyme inhibitory activity was measured by using LanthaScreen (registered trademark) system (Invitrogen) based on the attached instruction. The reagents used are shown below.
Reaction buffer solution: A solution containing 50 mmol/L HEPES (pH7.5), 0.01% Brij35, 10 mmol/L MgCl2 and 1 mmol/L EGTA was prepared by using purified water.
Test substance solution: A solution containing a test compound of 5-fold concentration with respect to the final concentration was prepared by 20-fold diluting a DMSO solution of the test compound of each concentration with the reaction buffer solution.
Enzyme solution: A solution containing 400 ng/mL Axl enzyme was prepared by using the reaction buffer solution.
Substrate solution: A solution containing 45 μmmol/L ATP and 500 nmmol/L Fluorescein-Poly GT (Invitrogen) was prepared by using the reaction buffer solution.
Detection solution: A solution containing 20 mM EDTA and 4 nM PY20 (Invitrogen) was prepared by using Dilution B (Invitrogen).
A 10 mmol/L DMSO solution of the test compound was dispensed into a 96-well plate (Nunc), and, furthermore, a 3-fold dilution series was prepared using DMSO. In each well of the 96-well plate for measurement, 5 μL each of the reaction buffer solution containing DMSO was added to a Blank group and a medium group, and 5 μL of the test substance solution was added to the test substance group, respectively. […] After standing still, fluorescence intensity at 520 nm and 495 nm at the time of irradiation with exciting light of 340 nm was measured by using Analyst GT (Molecular Devices). The phosphorylation of the artificial substrate was quantified by Time-resolved Fluorescence Resonance Energy Transfer (TR-FRET). The TR-FRET ratio was calculated by dividing 520 nm fluorescence signal by 495 nm fluorescence signal for each well, and the inhibition rate (%) in the test compound group was calculated based on the following mathematical formula. […]
(TR-FRET usually uses a lanthanide donor and a delayed reading to cut background.)

For another experiment, the system named is Ba/F3 Axl. The experiment in a line: Measurement of proliferation suppression rate using mouse pro-B cell line (Ba/F3 Axl) stably expressing Axl. The class given is cell-based. To be noted: BaF3, Ba/F3 Axl cells, 48 hours, CELLTITER-GLO, read-out: Proliferation suppression, value of 50% inhibition rate (IC50 value). The protocol:
Measurement of Proliferation Suppression Rate by Using Mouse Pro-B Cell Line (Ba/F3 Axl) Stably Expressing Axl
A 0.1 mmol/L DMSO solution of the test compound was dispensed into a 96-well plate, and further a 3-fold dilution series was prepared using DMSO. DMSO solutions of test compounds, having various concentrations, were further 500-fold diluted with a RPMI1640 medium (containing 10% HI-FBS and 1% penicillin) and a diluted solution of the test compound having […] with respect to the final concentration was prepared. In each well of the 96-well plate (BD Biosciences) for measurement, 50 μL of a RPMI medium was added to the Blank group, 50 μL of a RPMI medium containing 0.2% DMSO was added to the medium group, and 50 μL of the diluted solution of the test compound was added to the test compound group, respectively. Ba/F3 Axl was diluted with a medium to have a density of 2×10^5 cells/mL to prepare a cell suspension. In each well of the 96-well plate for measurement, 50 μL each of the RPMI medium was added to the Blank group, and 50 μL each of the cell suspension was added to the medium group and the test compound group, respectively, and the groups were stood still at 37° C. at 5% CO2 for 48 hours. After standing still, Relative Light Unit (RLU) was measured by using CELLTITER-GLO (registered trademark) LUMINESCENT CELL VIABILITY ASSAY (Promega). The measurement was carried out according to the attached instruction. To each well, 100 μL each of light-emitting solution was added. The plate was stirred at room temperature for 3 min and then stood still at room temperature with light shielded for 10 minutes, and RLU was measured by using Microplate Reader (SpectraMax M5e, Molecular Devices). The average values of RLU of the Blank group and the medium group were respectively calculated, and the proliferation suppression rate of the test compound group was calculated. Proliferation suppression rate (%)={1−(RLU of test compound group−A)/(B−A)}×100 [Math. 2] A: Average value of RLU of Blank group B: Average value of RLU of medium group […]
(In general: Cellular ATP, detected with luciferase, serves as a proxy for viable cell number.)

Molecules are shown by their SMILES. Structures can show the parent of a compound that is named as a salt.

In the case of `Cn1cc(-c2ccc(NC(=O)c3cc4c(n(-c5ccccc5)c3=O)CC3(CC3)CC4=O)nc2)c2c(N)ncnc21` [Example 45(24), N-[5-(4-amino-7-methyl-7H-pyrrolo[2,3-d]pyrimidin-5-yl)-2-pyridinyl]-2′,5′-dioxo-1′-phenyl-2′,5′,6′,8′-tetrahydro-1′H-spiro[cyclopropane-1,7′-quinoline]-3′-carboxamide], the IC50 came out at 9.7 nM on Axl enzyme and 7 nM in the experiment on Ba/F3 Axl.
As for `CC#CC(=O)NCc1ccc(C(=O)Nc2ccc(-c3cn(C)c4ncnc(N)c34)cc2)c(=O)n1-c1ccccc1` [Example 26, N-[4-(4-amino-7-methyl-7H-pyrrolo[2,3-d]pyrimidine-5-yl)phenyl]-6-[(2-butynoylamino)methyl]-2-oxo-1-phenyl-1,2-dihydro-3-pyridinecarboxamide], the IC50 at Axl enzyme was found to be 1.7 nM; in the experiment on Ba/F3 Axl, 0.8 nM.
With `Cn1cc(-c2ccc(NC(=O)c3cc(C(F)(F)F)cn(-c4ccccc4)c3=O)cc2)c2c(N)ncnc21` [Example 30, N-[4-(4-amino-7-methyl-7H-pyrrolo[2,3-d]pyrimidin-5-yl)phenyl]-2-oxo-1-phenyl-5-(trifluoromethyl)-1,2-dihydro-3-pyridinecarboxamide trifluoroacetate], the IC50 on Axl enzyme amounted to 8 nM; in the experiment with Ba/F3 Axl, 10.6 nM.

These data come from patent publication US9586967B2, “Pyrrolo pyrimidine derivative” (ONO PHARMACEUTICAL CO., LTD., priority 2013, dated 2017).
